Legend:
[1] = Solubility test according to European Pharmacopoeia 7.0, 5.11; format: physicochemical; details: for Solubility: Ph. Eur. descriptive term
Experimental: Solubility test was performed according to European Pharmacopoeia 7.0, page 637, 5.11.

[2] = Texture analysis (low-pressure compression, TA-XTplus Texture analyser); format: physicochemical; details: for Compressed density index, CDI: 200 mg sample, cyclic compression up to 20 steps, CDI below 15 is considered good flowability
Experimental: A simple and low sample consuming method for evaluation of the packing density of powders were obtained as compression profiles under low pressures using a die and a flat-faced punch fitted on a TA-XTplus Texture analyser (Stable Micro Systems Ltd., Godalming, UK). The small amount of 200 mg of sample was compressed in a steel mould (with the rate of displacement 0.03 mm/s). Also, a cyclic procedure (similar to tapping) was performed at maximal compressive displacement 0.5 mm, then retracting, relaxation for 15 s and then repeated compressive steps (altogether up to 20 steps).
Density at 0.2 MPa and CDI data of Neratinib maleate Form monohydrate and Neratinib maleate Form B6 (prepared according to example 12) are presented in Table 2.

For `CCOc1cc2ncc(C#N)c(Nc3ccc(OCc4ccccn4)c(Cl)c3)c2cc1NC(=O)/C=C/CN(C)C` [Neratinib base B6, (E)-N-{4-[3-Chloro-4-(2-pyridinylmethoxy)anilino]-3-cyano-7-ethoxy-6-quinolinyl}-4-(dimethylamino) -2-butenamide], the “Solubility compared with Neratinib maleate monohydrate” value ([1]; all tested conditions (pH 1.1, 4.5, 6.8), listed as Neratinib base form B6) was “good correlation”, the Solubility ([1]; pH = 1.1) was “sparingly” and the Solubility ([1]; pH = 4.5) was “slightly”. For the same compound, the Solubility ([1]; pH = 6.8) was “very slightly”, the “Density at 0.2 MPa” value ([2]; 200 mg sample compressed in steel mould, 0.03 mm/s, listed as crystalline form B6 of Neratinib base) was “higher than that of the Neratinib maleate monohydrate” and the “Compressed density index, CDI” value ([2]; listed as Neratinib base Form B6) was 10.89. The “Compressed density index, CDI” value ([2]; listed as crystalline form B6 of Neratinib base) was “below 15”.

Reference: patent US20200308141A1, “SOLID STATE FORMS OF NERATINIB AND SALTS THEREOF” (PLIVA HRVATSKA D.O.O., priority 2016, published 2020)
